# Data taken from patent publication US10428076B2, “Soluble guanylate cyclase stimulators” (Merck Sharp & Dohme Corp., priority 2015, dated 2019).
# Target: sGC α1/β1 heterodimer stably expressed in CHO-K1 cells (CHO-K1/sGC) (Homo sapiens (Human), UniProt Q02108+Q02153)
# Test: Cell-based sGC functional assay (Cyclic GMP Assay for sGC Activator: CASA assay)
# Conditions: CHO-K1, activity expressed as a percentage of compound A (standard), read-out: % Activation
# Description: Cell-based sGC Functional Assay (Cyclic GMP Assay for sGC Activator: CASA Assay)
# Soluble guanylate cyclase (sGC) is a heme-containing enzyme that converts GTP to secondary messenger cGMP. Increases in cGMP levels affect several physiological processes including vasorelaxation through multiple downstream pathways. […] Heme-dependent activators (HDAs) preferentially activate sGC containing a ferrous heme group. To determine the effect of sGC activators on enzyme activity, the CASA assay was developed to monitor the generation of cGMP in a cell line that stably expresses the heterodimeric sGC protein.
# Methods: A CHO-K1 cell line stably expressing the sGC α1/β1 heterodimer was generated using a standard transfection protocol. CHO-K1 cells were transfected with plasmids pIREShyghsGCα1 and pIRESneo-hsGCβ1 simultaneously using FUGENE reagent. Clones that stably express both subunits were selected with hygromycin and neomycin for ˜2 weeks. Clone #7 was chosen for the assay and was designated CHO-K1/sGC. CHO-K1/sGC cells were maintained in F-K12 medium containing 10% heat-inactivated Fetal Bovine Serum (FBS), 100 μg/mL penicillin/streptomycin, 0.5 mg/mL hygromycin and 0.25 mg/mL G418. The cells were then cryopreserved in LN2. On the day of the assay, the cells were thawed and resuspended in EBSS Assay Buffer (Sigma, E3024) supplemented with 5 mM MgCl2, 10 mM HEPES (4-(2-hydroxyethyl)piperazine-1-ethanesulfonic acid) and 0.05% BSA (bovine serum albumin) (EAB) and cell density was then adjusted to 2.25×10^5/mL with EAB. IBMX (3-isobutyl-1-methylxanthin, 0.5 mM) was added to inhibit degradation of cGMP. Compounds were diluted from DMSO stock solutions and added to the assay at a final DMSO concentration of 2.5%. Cells were pre-incubated in the presence and absence of 1 μM of Diethylenetriamine/nitric oxide adduct (DETA-NO; Sigma, 17018) for 30 min at 25° C. Compounds are subsequently added and incubated for 1 hr at 37° C. At the end of the incubation period, the reaction was terminated and the cells were lysed with the detection reagents from Cisbio Kits. The level of intracellular cGMP was determined using an HTRF-based assay kit (CisBio, 62GM2PEC), which detects the displacement of a fluorescence labeled cGMP from its specific antibody. The cGMP produced by test compounds was directly compared to the maximum cGMP production (this value was set to equal 100% activation.) of the published sGC-HDA compound A:
# [drawing 491] (Example 1 in WO 2010/065275, published Jun. 10, 2010). The test compounds' activity were then expressed as a percentage of compound A, the standard in every experiment. This percent activation was calculated either in the presence or absence of DETA-NO which was then plotted. Inflection points (IP) and maximum fold induction was derived using Abase analysis software for 4P fit.
row,Emax [%],SMILES
1,98.7,"CC1(c2cn(C(C)(C)C(=O)O)nn2)C(=O)Nc2nc(-c3nn(Cc4ccccc4F)c4cc(Cl)ccc34)nc(N)c21 (single isomer, unassigned) [Example 141A, 2-(4-{4-Amino-2-[6-chloro-1-(2-fluorobenzyl)-1H-indazol-3-yl]-5-methyl-6-oxo-6,7-dihydro-5H-pyrrolo[2,3-d]pyrimidin-5-yl}-1H-1,2,3-triazol-1-yl)-2-methylpropanoic acid]"
2,86.9,"CC1(c2ccc(CCc3nn[nH]n3)cn2)C(=O)Nc2nc(-c3nn(Cc4ccccc4F)c4cc(Cl)ccc34)nc(N)c21 (single isomer, unassigned) [Example 247A, 5-{5-[2-(2H-tetrazol-5-yl)ethyl]pyridin-2-yl}-4-amino-2-[6-chloro-1-(2-fluorobenzyl)-1H-indazol-3-yl]-5-methyl-5,7-dihydro-6H-pyrrolo[2,3-d]pyrimidin-6-one]"
3,99,"CC(C)(Cn1cc(C2(C)C(=O)Nc3nc(-c4nn(Cc5ccccc5F)c5cc(Cl)ccc45)nc(N)c32)nn1)C(=O)O (single isomer, unassigned) [Example 140A, 3-(4-{4-Amino-2-[6-chloro-1-(2-fluorobenzyl)-1H-indazol-3-yl]-5-methyl-6-oxo-6,7-dihydro-5H-pyrrolo[2,3-d]pyrimidin-5-yl}-1H-1,2,3-triazol-1-yl)-2,2-dimethylpropanoic acid]"
4,98.2,"CC1(c2ccc(CCS(=O)(=O)O)cc2)C(=O)Nc2nc(-c3nn(Cc4ccccc4F)c4cc(Cl)ccc34)nc(N)c21 (single isomer, unassigned) [Example 258B, 2-(4-{4-Amino-2-[6-chloro-1-(2-fluorobenzyl)-1H-indazol-3-yl]-5-methyl-6-oxo-6,7-dihydro-5H-pyrrolo[2,3-d]pyrimidin-5-yl}phenyl)ethanesulfonic acid]"
5,95.3,"CC1(c2ccc(CCc3nn[nH]n3)cn2)C(=O)Nc2nc(-c3nn(Cc4ccccc4F)c4ccccc34)nc(N)c21 (single isomer, unassigned) [Example 246A, 5-{5-[2-(2H-tetrazol-5-yl)ethyl]pyridin-2-yl}-4-amino-2-[1-(2-fluorobenzyl)-1H-indazol-3-yl]-5-methyl-5,7-dihydro-6H-pyrrolo[2,3-d]pyrimidin-6-one]"
6,87.6,"CC1(c2cccc(-c3nn[nH]n3)c2)C(=O)Nc2nc(-c3nn(CCC(F)(F)C(F)(F)F)c4ncccc34)nc(N)c21 (single isomer, unassigned) [Example 252B, 4-amino-5-methyl-2-[1-(3,3,4,4,4-pentafluorobutyl)-1H-pyrazolo[3,4-b]pyridin-3-yl]-5-[3-(2H-tetrazol-5-yl)phenyl]-5,7-dihydro-6H-pyrrolo[2,3-d]pyrimidin-6-one]"

# More lines, now with the values behind:
row,SMILES,Emax [%]
1,"CC1CCC(Cn2nc(-c3nc(N)c4c(n3)NC(=O)C4(C)c3nc(CC(C)(C)C(=O)O)co3)c3ccc(F)cc32)CC1 (racemic) [Example 137AA, 3-{2-[4-amino-2-{6-fluoro-1-[4-methylcyclohexylmethyl]-1H-indazol-3-yl}-5-methyl-6-oxo-6,7-dihydro-5H-pyrrolo[2,3-d]pyrimidin-5-yl]-1,3-oxazol-4-yl}-2,2-dimethylpropanoic acid]",92.1
2,"CC(C)(Cc1csc(C2(C3CC3)C(=O)Nc3nc(-c4nn(CCCC(F)(F)F)c5ncc(F)cc45)nc(N)c32)n1)C(=O)O (stereo not drawn) [Example 96B, 3-(2-{4-amino-5-cyclopropyl-2-[5-fluoro-1-(4,4,4-trifluorobutyl)-1H-pyrazolo[3,4-b]pyridin-3-yl]-6-oxo-6,7-dihydro-5H-pyrrolo[2,3-d]pyrimidin-5-yl}thiazol-4-yl)-2,2-dimethylpropanoic acid]",54
3,"CC1(c2cccc(-c3nn[nH]n3)n2)C(=O)Nc2nc(-c3nn(Cc4ccccc4F)c4cc(Cl)ccc34)nc(N)c21 (single isomer, unassigned) [Example 253A, 5-[6-(2H-tetrazol-5-yl)pyridin-2-yl]-4-amino-2-[6-chloro-1-(2-fluorobenzyl)-1H-indazol-3-yl]-5-methyl-5,7-dihydro-6H-pyrrolo[2,3-d]pynmidin-6-one]",96.7
4,"CC1(c2nn(C(C)(C)C(=O)O)c(=O)o2)C(=O)Nc2nc(-c3nn(CCC(F)(F)C(F)(F)F)c4cc(Cl)ccc34)nc(N)c21 (single isomer, unassigned) [Example 99B, 2-[5-{4-Amino-2-[6-chloro-1-(3,3,4,4,4-pentafluorobutyl)-1H-indazol-3-yl]-5-methyl-6-oxo-6,7-dihydro-5H-pyrrolo[2,3-d]pyrimidin-5-yl}-2-oxo-1,3,4-oxadiazol-3(2H)-yl]-2-methylpropanoic acid]",110
5,"CC1(N2CCC(CCC(=O)O)C2)C(=O)Nc2nc(-c3nn(Cc4ccccc4F)c4cc(Cl)ccc34)nc(N)c21 (single isomer, unassigned) [Example 261C, 3-[1-{4-Amino-2-[6-chloro-1-(2-fluorobenzyl)-1H-indazol-3-yl]-5-methyl-6-oxo-6,7-dihydro-5H-pyrrolo[2,3-d]pyrimidin-5-yl}pyrrolidin-3-yl]propanoic acid]",113
6,"CC(C)(Cc1coc(C2(C)C(=O)Nc3nc(-c4nn(CC5CCCCO5)c5ccccc45)nc(N)c32)n1)C(=O)O (single isomer, unassigned) [Example 230AA, 3-{2-[4-amino-5-methyl-6-oxo-2-{1-[tetrahydro-2H-pyran-2-ylmethyl]-1H-indazol-3-yl}-6,7-dihydro-5H-pyrrolo[2,3-d]pyrimidin-5-yl]-1,3-oxazol-4-yl}-2,2-dimethylpropanoic acid]",99.1

# Same assay, conditions: activity expressed as a percentage of compound A (standard)
row,SMILES,% Activation [%]
1,"C[C@@]1(c2ccc(CCc3noc(=O)[nH]3)cc2)C(=O)Nc2nc(-c3nn(Cc4ccccc4F)c4cc(Cl)ccc34)nc(N)c21 [Example 256B, (S)-4-Amino-2-[6-chloro-1-(2-fluorobenzyl)-1H-indazol-3-yl]-5-methyl-5-{4-[2-(5-oxo-4,5-dihydro-1,2,4-oxadiazol-3-yl)ethyl]phenyl}-5,7-dihydro-6H-pyrrolo[2,3-d]pyrimidin-6-one]",104.4

# Same assay, conditions: inflection point (IP) from 4P fit of percent activation
row,SMILES,EC50 [nM]
1,"CC(C)(Cc1csc(C2(C3CC3)C(=O)Nc3nc(-c4nn(CCCC(F)(F)F)c5ncc(F)cc45)nc(N)c32)n1)C(=O)O (stereo not drawn) [Example 96B, 3-(2-{4-amino-5-cyclopropyl-2-[5-fluoro-1-(4,4,4-trifluorobutyl)-1H-pyrazolo[3,4-b]pyridin-3-yl]-6-oxo-6,7-dihydro-5H-pyrrolo[2,3-d]pyrimidin-5-yl}thiazol-4-yl)-2,2-dimethylpropanoic acid]",311

# Target: human recombinant sGC enzyme (Homo sapiens (Human), UniProt Q02108+Q02153)
# Test: Size Exclusion Chromatography (SEC) competition binding assay using [3H] Ex-77B as the radioligand
# Conditions: [3H] Ex-77B radioligand, 24 hours at 37° C., 300 μM DETA/NO
# Experimental: Binding Assay: The binding potencies of sGC compounds to the human recombinant sGC enzyme were determined in a Size Exclusion Chromatography (SEC) competition binding assay using [^3H] Ex-77B as the radioligand. [^3H] […] The parent (non-labeled) molecule was first iodinated then a Pd-catalyzed iodine to tritium exchange provided the labeled compound. […] Assays were conducted in 96-well plates in a total volume of 200 μL. […] Non-specific binding was defined by competition with 1 μM of Ex-77B. After the incubation period, the binding mixtures were loaded onto the gel-filtration plate (ThermoFischer Cat. No. 89808) pre-equilibrated with binding buffer and spun at 1000×g for 3 min at 4° C. on a Bench top centrifuge. The collected eluates in White Frame Clear Well Isoplates (Perkin Elmer Cat #6005040) received 100 μl of UltimaGold scintillation cocktail. The sealed plates were shaken vigorously and span, and counted after 6 hours with a Wallac Microbeta TriLux 1450 LSC & Luminescence Counter (Perkin Elmer).
row,SMILES,Ki [nM]
1,"CC(C)(Cc1csc(C2(C3CC3)C(=O)Nc3nc(-c4nn(CCCC(F)(F)F)c5ncc(F)cc45)nc(N)c32)n1)C(=O)O (stereo not drawn) [Example 96B, 3-(2-{4-amino-5-cyclopropyl-2-[5-fluoro-1-(4,4,4-trifluorobutyl)-1H-pyrazolo[3,4-b]pyridin-3-yl]-6-oxo-6,7-dihydro-5H-pyrrolo[2,3-d]pyrimidin-5-yl}thiazol-4-yl)-2,2-dimethylpropanoic acid]",12.2
